{"source": "patent US20240182475A1", "about": "(Université de Lausanne, priority 2021, published 2024)", "key": {"CSE ko primary VSMC": {"tested_on": "CSE ko primary VSMC", "test": "Primary vascular smooth muscle cell mineralization, CSE ko", "format": "cell-based, mouse", "settings": "secondary CPP 24 h, 50 uM", "protocol": "(§1) Primary VSMC were isolated from wild-type (WT) or CSE-deficient (CSE ko) mice. A) Alizarin red staining of WT or CSE ko VSMC stimulated with secondary CPP for 24 h in DMEM+10% FBS and treated or not with 50 uM of compound Z20. […] Statistical analysis was determined using one-way ANOVA (compared to WT vehicle) with ***p<0.001, ****p<0.0001."}, "HaCaT cells": {"tested_on": "HaCaT cells", "test": "Human keratinocyte line mineralization (Alizarin red)", "format": "cell-based", "settings": "secondary CPP 24 h, different concentrations; listed as Z20", "protocol": "Immortalized human keratinocytes HaCaT cells were stimulated with secondary CPP and different concentrations of the compound Z20 for 24 h. Cells were then stained with Alizarin Red. […] Statistical analysis was determined using one-way ANOVA with *p<0.05, ***p<0.001."}, "WT primary VSMC": {"tested_on": "WT primary VSMC", "test": "Primary vascular smooth muscle cell mineralization, wild type", "format": "cell-based, mouse", "settings": "secondary CPP 24 h, 50 uM, listed as Z20", "protocol": "as §1"}, "primary murine tenocytes": {"tested_on": "primary murine tenocytes", "test": "Primary murine tenocyte mineralization (Alizarin red)", "format": "cell-based, mouse", "settings": "secondary CPP 24 h, 50 uM; listed as Z20", "protocol": "A) Alizarin red absorbance at 570-630 nm of primary murine tenocytes stimulated with secondary CPP for 24 h in DMEM+10% FBS and treated or not with 50 uM of Z20. B) Percentage of cytotoxicity (LDH %) in tenocytes treated or not with Z20 for 24 h. Statistical analysis was determined using one-way ANOVA with ***p<0.001.\nChondrocytes were isolated from 6 days old mice (Cse KO, Cse tg, Cbs KO and corresponding WT mice) as described previously (Nasi, So, et al. 2016). Tenocytes were isolated from 6 to 8 weeks old mice (Cse KO and WT) and by double digestion in Collagenase IV NB standard grade (Witec AG). Chondrocytes were amplified in DMEM with 10% FBS and 1% Penicillin Streptomycin and used at P1. Tenocytes were amplified in αDMEM with 10% FBS, 0.2 mM L-ascorbic acid, 2-phosphate and 1% Penicillin Streptomycin and used at P1. For crystal formation analysis, cells were cultured for 14 days in calcification medium (BGJb (Gibco) medium with 10% FBS, 0.2 mM L-ascorbic acid, 2-phosphate, 20 mM β-glycerol phosphate and 1% Penicillin Streptomycin). Medium and stimulations were refreshed every 3 days of culture. Alternatively, in some experiments, cells were cultured for 24 h in medium supplemented with secondary calciprotein particles (CPP, final concentration equivalent to […] calcium) to induce calcification as previously described (Aghagolzadeh et al. 2017). […]"}, "ATDCS chondrocytes": {"tested_on": "ATDCS chondrocytes", "test": "ATDCS chondrocyte mineralization (Alizarin red)", "format": "cell-based", "settings": "sCPP 24 h, different concentrations", "protocol": "Alizarin red staining of ATDCS chondrocytes stimulated with sCPP for 24 h in DMEM+10% FBS in presence of different concentrations of compounds C5 and C6. The graphs show Alizarin red absorbance at 570-630 nm. Statistical analysis (in comparison to 0) was determined using one-way ANOVA with *p<0.05, **p<0.01, ***p<0.001, […]."}, "MOVAS cells": {"tested_on": "MOVAS cells", "test": "Cytotoxicity assay, LDH release", "format": "cell-based, mouse", "settings": "at 2 uM", "method_in_brief": "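MOVAS cells were exposed to CPP for 24 h in DMEM+10% FBS with a range of compound concentrations. Cytotoxicity was measured as LDH release by a homogeneous membrane-integrity assay, expressed as background-subtracted percentage of the Triton X-100-lysed signal.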"}, "[1]": {"tested_on": "WT murine primary chondrocytes", "test": "Murine primary chondrocyte calcification (Alizarin red)", "format": "cell-based, mouse", "settings": "sCPP 24 h, DMEM+10% FBS, 50 uM", "protocol": "(a) WT and Cse-deficient chondrocytes were incubated with a CSE activator (SU004, 50 μM) previously identified by high-through put screen, or with the equivalent volume of DMSO (0.1%) for 24 hours in calcification medium. STS 25 mM was used as a positive control for calcification inhibition. Calcium-containing crystals were stained with Alizarin red and quantified. (b) Cytotoxicity was assessed by LDH measurement and expressed as % over 100% cytotoxicity. (c) IL-6 secretion was measured by ELISA in supernatant of WT chondrocytes incubated with SU004 50 μM or STS 25 mM for 24 hours in calcification medium. (d) Primary human chondrocytes from 3 OA patients (P1, P2, P3) were incubated with SU004 50 μM, or with the equivalent volume of DMSO (0.1%) for 24 hours in calcification medium. Calcium-containing crystals were stained with Alizarin red and quantified. (e) Cytotoxicity was assessed by LDH measurement and expressed as % over 100% cytotoxicity. (f) IL-6 secretion was measured by ELISA in supernatant of human chondrocytes incubated for 24 hours with SU004 50 μM in calcification medium. *p<0.05, ** p<0.01, ****p<0.0001.\nPrimary murine chondrocytes were stimulated with secondary calciprotein particles (sCPP) for 24 h in DMEM+10% FBS in presence of C5 or C6 at 50 uM or vehicle (DMSO). Mineralization was analyzed by Alizarin red staining of the cells (A) and quantified (B). Statistical analysis was determined using one-way ANOVA with **p<0.01 and ***p<0.001.\nChondrocytes were isolated from 6 days old mice (Cse KO, Cse tg, Cbs KO and corresponding WT mice) as described previously (Nasi, So, et al. 2016). Tenocytes were isolated from 6 to 8 weeks old mice (Cse KO and WT) and by double digestion in Collagenase IV NB standard grade (Witec AG). […]\nAfter incubation in calcification media, supernatant was collected for ELISA and LDH measurement, and cell monolayer was washed in PBS, fixed in 10% formol and crystal deposition analyzed through Alizarin red staining and quantified as previously described"}}, "note": "“Also recorded” adds a separate entry of the source."}
{"smiles": "CCn1cnc2c(Nc3cnn(CC4CCCO4)c3)ncnc21", "note": "(stereo not shown) [Compound 13]", "values": [{"measurement": "Mineralization (Alizarin red, % over WT vehicle)", "setting": "CSE ko primary VSMC", "result": "no inhibition"}, {"measurement": "Mineralization (Alizarin red absorbance 570-630 nm)", "setting": "HaCaT cells", "result": "inhibited calcification; also recorded: inhibits human keratinocyte line mineralization"}, {"measurement": "Mineralization (Alizarin red, % over WT vehicle)", "setting": "WT primary VSMC", "result": "significant inhibition; also recorded: inhibits primary vascular smooth muscle cell mineralization"}, {"measurement": "Mineralization (Alizarin red absorbance 570-630 nm)", "setting": "primary murine tenocytes", "result": "inhibited calcification; also recorded: inhibits primary murine tenocyte mineralization"}]}
{"smiles": "Cn1ncc2c(Nc3cnn(CC4CCCO4)c3)ncnc21", "note": "(stereo not shown) [Compound 8, N-{1-methyl-1H-pyrazolo[3,4-d]pyrimidin-4-yl}-1-[(oxolan-2-yl)methyl]-1H-pyrazol-4-amine]", "values": [{"measurement": "Mineralization (Alizarin red absorbance 570-630 nm)", "setting": "ATDCS chondrocytes", "result": "inhibit ATDCS mineralization in vitro in a dose dependent fashion"}, {"measurement": "Cytotoxicity assay LDH release (% of cytotoxicity)", "setting": "MOVAS cells", "result": 15, "unit": "% at"}, {"measurement": "Mineralization (Alizarin red)", "setting": "[1]", "result": "inhibit primary murine chondrocyte mineralization"}]}
